Results on five cell lines are retold here after the supplement of paper PMC10307832.

Assay in all cases: relative viability (nuclei count vs DMSO), 5 days (fraction); higher = more cells survive
Compound in assay [1]: CCn1c(-c2nonc2N)nc2cnc(Oc3cccc(NC(=O)c4ccc(OCCN5CCOCC5)cc4)c3)cc21 + COc1cc2c(Oc3ccc(NC(=O)C4(C(=O)Nc5ccc(F)cc5)CC4)cc3F)ccnc2cc1OCCCN1CCOCC1 [Foretinib] (partner 0.25 µM)
The method, boiled down: (§1)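 Relative viability was taken as the ratio of nuclei in treated wells to nuclei in vehicle wells. Lung cancer cell lines in 1536-well plates received compounds by pin tool one day after seeding, either one drug alone or a fixed anchor-drug dose plus five library-drug doses (not always all listed) in √10 steps. Nuclei were counted on 4× images after 5 days of treatment, and values are medians of duplicate plates.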

Compound in the assay “Mirin + Alpelisib”: N=C1NC(=O)/C(=C/c2ccc(O)cc2)S1 [Mirin] + Cc1nc(NC(=O)N2CCC[C@H]2C(N)=O)sc1-c1ccnc(C(C)(C)C(F)(F)F)c1 [Alpelisib] (partner 2 µM)
The method, boiled down:
as §1

Compound in assay [2]: CCn1c(-c2nonc2N)nc2cnc(Oc3cccc(NC(=O)c4ccc(OCCN5CCOCC5)cc4)c3)cc21 + CS(=O)(=O)N1CCN(Cc2cc3nc(-c4cccc5[nH]ncc45)nc(N4CCOCC4)c3s2)CC1 [Pictilisib] (partner 1 µM)
In outline: as §1

Compound in assay [3]: CCC1=CN=CN=C1N2CCN(CC2)CC3=NC4=C(N3)C=C(C=C4)C(F)(F)F + Nc1nc2[nH]cc(CCc3ccc(C(=O)N[C@@H](CCC(=O)O)C(=O)O)cc3)c2c(=O)[nH]1 [Pemetrexed] (partner 0.2 µM)
The method, boiled down:
as §1

NCI-H2228: the relative viability in assay [1] (first compound 0.04 µM) worked out at 1.28; in assay [1] (first compound 0.1265 µM) it was 0.946; in assay [1] (first compound 0.4 µM), 1.03; in assay [1] (first compound 1.265 µM), 0.744; in assay [1] (first compound 4 µM), 0.731; in the assay with Mirin + Alpelisib (first compound 0.25 µM), 0.711. For the same cell line, the relative viability is 0.906 in the assay with Mirin + Alpelisib (first compound 0.7906 µM); 0.681 with Mirin + Alpelisib (first compound 2.5 µM); 1.05 with Mirin + Alpelisib (first compound 7.906 µM); 0.636 with Mirin + Alpelisib (first compound 25 µM); 0.607 in assay [2] (first compound 0.04 µM); 0.3 in assay [2] (first compound 0.1265 µM). Besides, the relative viability in assay [2] (first compound 0.4 µM) was determined as 0.229; in assay [2] (first compound 1.265 µM), 0.605; in assay [2] (first compound 4 µM), 0.254; in assay [3] (first compound 0.1265 µM), 0.363; in assay [3] (first compound 0.4 µM), 0.335; in assay [3] (first compound 1.265 µM) it was 0.303. In assay [3] (first compound 4 µM), the relative viability came to 0.294.

With NCI-H2347, the relative viability in assay [1] (first compound 0.04 µM) is 1.08; in assay [1] (first compound 0.1265 µM), 1.27; in assay [1] (first compound 0.4 µM), 1.26; in assay [1] (first compound 1.265 µM), 0.459; in assay [1] (first compound 4 µM) it was 0.585; in the assay with Mirin + Alpelisib (first compound 0.25 µM), 1.02. The relative viability with Mirin + Alpelisib (first compound 0.7906 µM) came to 1.12; in the assay with Mirin + Alpelisib (first compound 2.5 µM), 1.05; in the assay with Mirin + Alpelisib (first compound 7.906 µM), 1.08; in the assay with Mirin + Alpelisib (first compound 25 µM), 1.16; in assay [2] (first compound 0.04 µM), 0.94; in assay [2] (first compound 0.1265 µM), 0.648. The relative viability in assay [2] (first compound 0.4 µM) worked out at 1.05; in assay [2] (first compound 1.265 µM), 0.556; in assay [2] (first compound 4 µM), 0.563; in assay [3] (first compound 0.04 µM) it was 0.422; in assay [3] (first compound 0.1265 µM), 0.408; in assay [3] (first compound 0.4 µM), 0.434. Besides, the relative viability in assay [3] (first compound 1.265 µM) was found to be 0.373; in assay [3] (first compound 4 µM), 0.442.

On to NCI-H2405, for which the relative viability in assay [1] (first compound 0.04 µM) was found to be 1.23; in assay [1] (first compound 0.1265 µM) it was 0.999; in assay [1] (first compound 0.4 µM), 0.485; in assay [1] (first compound 1.265 µM), 0.342; in assay [1] (first compound 4 µM), 0.384; with Mirin + Alpelisib (first compound 0.25 µM), 0.762. In addition, the relative viability with Mirin + Alpelisib (first compound 0.7906 µM) was determined as 0.774; with Mirin + Alpelisib (first compound 2.5 µM) it was 0.781; with Mirin + Alpelisib (first compound 7.906 µM) it was 0.727; in the assay with Mirin + Alpelisib (first compound 25 µM), 0.622; in assay [2] (first compound 0.04 µM), 0.454; in assay [2] (first compound 0.1265 µM) it was 0.23. In addition, the relative viability in assay [2] (first compound 0.4 µM) amounted to 0.15; in assay [2] (first compound 1.265 µM), 0.261; in assay [2] (first compound 4 µM) it was 0.171; in assay [3] (first compound 0.04 µM), 1.02; in assay [3] (first compound 0.1265 µM), 1.05; in assay [3] (first compound 0.4 µM) it was 0.992. Also, the relative viability in assay [3] (first compound 4 µM) worked out at 1.15.

With NCI-H3122, the relative viability in assay [1] (first compound 0.04 µM) was found to be 1.06; in assay [1] (first compound 0.1265 µM), 0.969; in assay [1] (first compound 0.4 µM) it was 0.935; in assay [1] (first compound 1.265 µM) it was 0.972; in assay [1] (first compound 4 µM) it was 0.832; with Mirin + Alpelisib (first compound 0.25 µM), 0.715. The relative viability in the assay with Mirin + Alpelisib (first compound 0.7906 µM) came to 0.823; in the assay with Mirin + Alpelisib (first compound 2.5 µM) it was 0.729; with Mirin + Alpelisib (first compound 7.906 µM) it was 0.923; with Mirin + Alpelisib (first compound 25 µM), 0.821; in assay [2] (first compound 0.04 µM), 0.879; in assay [2] (first compound 0.1265 µM), 0.672. In addition, the relative viability in assay [2] (first compound 0.4 µM) was 0.516; in assay [2] (first compound 1.265 µM), 0.674; in assay [2] (first compound 4 µM) it was 0.542; in assay [3] (first compound 0.04 µM), 0.21; in assay [3] (first compound 0.1265 µM), 0.184; in assay [3] (first compound 0.4 µM), 0.202. Further, the relative viability worked out at 0.203 in assay [3] (first compound 1.265 µM) and 0.215 in assay [3] (first compound 4 µM).

On to PC-3 [JPC-3], for which the relative viability in assay [1] (first compound 0.04 µM) was 1.06; in assay [1] (first compound 0.1265 µM), 1.08; in assay [1] (first compound 0.4 µM), 1.11; in assay [1] (first compound 1.265 µM) it was 1.01; in assay [1] (first compound 4 µM) it was 0.942; with Mirin + Alpelisib (first compound 0.25 µM) it was 1.04. Besides, the relative viability is 1.02 with Mirin + Alpelisib (first compound 0.7906 µM); 1.03 with Mirin + Alpelisib (first compound 2.5 µM); 1.07 with Mirin + Alpelisib (first compound 7.906 µM); 1.18 with Mirin + Alpelisib (first compound 25 µM); 0.919 in assay [2] (first compound 0.04 µM); 0.775 in assay [2] (first compound 0.1265 µM). Further, the relative viability is 0.68 in assay [2] (first compound 0.4 µM); 0.723 in assay [2] (first compound 1.265 µM); 0.714 in assay [2] (first compound 4 µM); 0.983 in assay [3] (first compound 0.1265 µM); 1.07 in assay [3] (first compound 0.4 µM); 0.959 in assay [3] (first compound 1.265 µM). Also, in assay [3] (first compound 4 µM), the relative viability was determined as 1.09.
